Source: patent US5405864A, “Chemotherapeutic maleimides” (Syntex (U.S.A.) Inc., priority 1993, dated 1995)

Assays:
[1] = target: T1, β1 isozyme of PKC (Rattus norvegicus, UniProt P68403); assay: Protein kinase C inhibition assay (32P incorporation from γ-32P ATP into synthetic peptide substrate); assay type: biochemical; settings: β1 isozyme of PKC from rat brain; 50 μM ATP; five minutes at room temperature
T1 construct: β1 isozyme of PKC from rat brain; from tissue; host or cells: rat brain
Description: In vitro activity for protein kinase C inhibition, is quantitated by measuring incorporation of ^32 P from γ-^32 P ATP into synthetic peptide substrates.
Protein Kinase C (PKC) inhibitory activity is quantitated by measuring incorporation of ^32 P from γ-^32 P ATP into synthetic peptide substrates. The inhibitory potential is measured using the β1 isozyme of PKC from rat brain and the synthetic peptide substrate ala-lys-arg-arg-arg-leu-ser-ser-leu-arg-ala.
A reaction mixture containing 25 mM Tris-HCl, pH 7.5, 2.5 mM Mg(NO3), 1.0 mM EGTA, 20 μM substrate, 1 μg/mL phosphatidylserine (PS), 5×10^-6 M diacylglycerol(di-C8), and 50 μM ATP is spiked with γ-^32 P ATP (>5,000 Ci/mmol) to provide approximately 10^6 CPM per reaction and 0.08 μg/mL PKC in a 50 μl volume per well. The assay is run with or without test compound, added at various concentrations. After five minutes incubation at room temperature, the reaction is stopped by the addition of 0.2V of a 50% TCA solution. A 30 μl sample from each well (control and test compound) is then spotted onto Whatman P-81 ion exchange chromatography paper, and 32-P incorporation is then counted on a Beckman LS 5000 TA liquid scintillation counter. The percent inhibition of PKC activated by […] diC8 and 1 μg/mL phosphatydil serine is determined according to the formula: […]
and the concentration necessary to achieve 50% Inhibition is determined.

[2] = tested on: breast cell line MDA-N; assay: tumor cell growth inhibition in culture, breast cell line MDA-N; assay type: cell-based; settings: Homo sapiens, read-out: GI50 (concentration to inhibit tumor cell growth in culture by 50%)
Description: (§1) The compounds of the present invention are protein kinase C inhibitors useful as chemotherapeutic agents for treating mammals, particularly humans, having a variety of malignant disease states including: small cell lung carcinoma, colon carcinoma, breast tumors corresonding to MCF7, MDA-MB-435 and MDA-N cell lines, and PKC overexpressing tumors, such as those corresponding to CHO/PKC-ε. […] For example, 3-[1-(3-isothioureidopropyl)-2-(thianaphthen-2-yl)indol-3-yl]-1H-pyrrole-2,5-dione has a GI50 (concentration to inhibit tumor cell growth in culture by 50%) of […] against breast cell line MDA-N versus 1 μM against colon carcinoma cell line HT-29.

[3] = tested on: colon carcinoma cell line HT-29; assay: tumor cell growth inhibition in culture, colon carcinoma cell line HT-29; assay type: cell-based; settings: Homo sapiens, read-out: GI50 (concentration to inhibit tumor cell growth in culture by 50%)
Description: as §1

[4] = tested on: H82 small cell lung carcinoma (SCLC) cells; assay: Small Cell Lung Carcinoma Xenograft Assay; assay type: in vivo, Female athymic nude mice
Description: (§2) In vivo activity for chemotherapeutic agents, particularly for treating malignant diseases, is determined by tumor inhibition assays, for example as described by Maneckjee, et al., in Proc. Natl. Acad. Sci. USA, Vol 89, 1169-1173 (February 1992). Variations of the assay can be performed, e.g., using HT-29 colon carcinoma cells, SCLC H82 cells, CHO/PKC-β and CHO/PKC-ε cells.
This procedure is a modification of a procedure described by Maneckjee, et al., in Proc. Natl. Acad. Sci. USA, Vol 89, 1169-1173 (February 1992).
(§3) H82 small cell lung carcinoma (SCLC) cells are thawed from frozen stock and grown in RPMI. Prior to injection, the cells are trypsinized, counted, and resuspended in PBS:solubilized basement membrane preparation (Matrigel®) (1:2) to concentrations of 5×10^5 or 1.5×10^6 […]. Female athymic nude mice, 4-5 weeks old (Harlan Sprague Dawley) receive 200R/mouse irradiation one day prior to challenge, and are given 0.2 ml SCLC/mouse by subcutaneous injection in the flank (concentrations of 1×10^5 or 3×10^5 SCLC cells/mouse). Groups of 30 mice are treated intraperitoneally, once a day, with test compound at 10 mg/kg (solubilized in DMSO and diluted to final vehicle concentration of 20% DMSO in PBS). Treatments are started 2 hours post-challenge and continue for 45 days. Vehicle treated and untreated mice are used as controls.
(§4) Statistical Analysis: A Fisher Exact test [Kendall M., Stuart A., The Advanced Theory of Statistics, Vol., 2 (MacMillan Pub. Co. N.Y., 1979)] is used to compare tumor occurrence rates between groups. The Mann Whitney U test [Hollander N., Wolfe D. A., Non-parametric Statistical Methods (John Wiley and Sons, Inc., N.Y., 1973)] is used to compare differences in survival time and a log rank test (Kalbfleisch J. D., Prentice R. L., The Statistical Analysis of Failure Time Data (John Wiley and Sons, Inc., N.Y. 1980)] is used to compare the time for each tumor to reach 2000 mm^3.

[5] = tested on: HT-29 colon cancer cells; assay: Colon Carcinoma Xenograft Assay; assay type: in vivo, Female athymic nude mice
Description: as §2, §3, §4
By following the procedure of Example 18 and substituting H82 small cell lung carcinoma cells with HT-29 colon cancer cells, grown to a concentration of 5×10^6 cells/ml and administered at a concentration of 1×10^6 cells/mouse, activity against colon carcinoma is determined.

[6] = toxicity in mice of the Small Cell Lung Carcinoma Xenograft Assay; assay type: in vivo, Female athymic nude mice
Description: as §3

T1 sequence (P68403 whole entry): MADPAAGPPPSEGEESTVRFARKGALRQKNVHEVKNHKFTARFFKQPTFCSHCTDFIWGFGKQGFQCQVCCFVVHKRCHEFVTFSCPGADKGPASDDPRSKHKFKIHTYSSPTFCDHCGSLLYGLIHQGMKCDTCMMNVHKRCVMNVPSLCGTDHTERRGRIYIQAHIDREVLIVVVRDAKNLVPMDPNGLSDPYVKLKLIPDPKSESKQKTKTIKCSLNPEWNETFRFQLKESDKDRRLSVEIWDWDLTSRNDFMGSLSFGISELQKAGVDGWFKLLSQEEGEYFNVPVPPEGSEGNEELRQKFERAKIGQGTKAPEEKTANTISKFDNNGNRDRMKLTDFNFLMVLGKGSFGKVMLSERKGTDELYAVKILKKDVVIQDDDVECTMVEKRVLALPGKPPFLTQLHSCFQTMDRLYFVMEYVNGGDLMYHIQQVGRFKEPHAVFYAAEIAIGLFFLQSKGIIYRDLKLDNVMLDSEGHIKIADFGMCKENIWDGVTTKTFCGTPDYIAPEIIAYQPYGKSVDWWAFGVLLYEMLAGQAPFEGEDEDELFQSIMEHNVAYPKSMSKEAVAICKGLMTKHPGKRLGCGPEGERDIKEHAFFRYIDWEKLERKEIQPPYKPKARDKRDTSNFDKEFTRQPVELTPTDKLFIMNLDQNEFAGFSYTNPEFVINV

Row | Compound | IC50 [1] | GI50 [2] | GI50 [3] | prevention of SCLC tumor formation (in words) ([4]; 10 mg/kg intraperitoneally once a day, 45 days) | inhibition of tumor growth (in words) ([4]; SCLC H82 xenograft, 10 mg/kg intraperitoneally once a day, 45 days) | tumor size, fold smaller than vehicle-treated or untreated control groups ([4]; challenge of 1×10^5 SCLC cells/mouse, 10 mg/kg i.p. once a day) | median time for the tumor volume to reach 2000 mm^3 ([4]; challenge of 1×10^5 SCLC cells/mouse, 10 mg/kg i.p. once a day, vehicle-treated control Day 35 (p<0.001)) | extension of median time for the tumor volume to reach 2000 mm^3 ([4]; challenge of 1×10^5 SCLC cells/mouse, 10 mg/kg i.p. once a day, vs vehicle-treated control Day 35 (p<0.001)) | tumor size, fold smaller than vehicle-treated or untreated control groups ([4]; challenge of 3×10^5 SCLC cells/mouse, 10 mg/kg i.p. once a day) | median time for the tumor volume to reach 2000 mm^3 ([4]; challenge of 3×10^5 SCLC cells/mouse, 10 mg/kg i.p. once a day, vehicle-treated control Day 31 (p<0.001)) | extension of median time for the tumor volume to reach 2000 mm^3 ([4]; challenge of 3×10^5 SCLC cells/mouse, 10 mg/kg i.p. once a day, vs vehicle-treated control Day 31 (p<0.001)) | number of mice having tumors ≥2000 mm^3 at Day 42 of treatment (in words) ([4]; either challenge level (3×10^5 or 1×10^5 SCLC cells/mouse), 10 mg/kg i.p. once a day, p<0.05) | prevention of HT-29 tumor formation (in words) ([5]; 1×10^6 cells/mouse, procedure of Example 18) | number of mice having tumors ≥2000 mm^3 at Day 42 of treatment (in words) ([5]; HT-29, 1×10^6 cells/mouse, p<0.05) | tumor size, fold smaller than vehicle-treated or untreated control groups ([5]; HT-29, 1×10^6 cells/mouse, procedure of Example 18) | median time for the tumor volume to reach 2000 mm^3 ([5]; HT-29, 1×10^6 cells/mouse, vehicle-treated control Day 33 (p<0.01)) | extension of median time for the tumor volume to reach 2000 mm^3 ([5]; HT-29, 1×10^6 cells/mouse, vs vehicle-treated control Day 33 (p<0.01)) | inhibition of tumor growth (in words) ([5]; HT-29 xenograft, 1×10^6 cells/mouse, 10 mg/kg i.p. once a day (procedure of Example 18)) | toxicity (in words) ([6]; 10 mg/kg intraperitoneally once a day) | LD50 at 144 h ([6]; mouse, in vivo, ip, after 6 days, read-out: chronic LD50)
1 | NCCCn1c(-c2cc3ccccc3s2)c(C2=CC(=O)NC2=O)c2ccccc21 [3-[1-(3-aminopropyl)-2-(thianaphthen-2-yl)indol-3-yl]-1H-pyrrole-2,5-dione] | 40 nM | – | – | – | – | – | – | – | – | – | – | – | – | – | – | – | – | – | – | –
2 | N=C(N)SCCCn1c(-c2cc3ccccc3s2)c(C2=CC(=O)NC2=O)c2ccccc21 [3-[1-(3-isothioureidopropyl)-2-(thianaphthen-2-yl)indol-3-yl]-1H-pyrrole-2,5-dione] | 3 nM | 10 nM | 1000 nM | not preventing SCLC tumor formation entirely | did significantly slow tumor growth | ~3 fold | > 42 days | > 7 days | approximately 2 fold | 39 days | 8 days | reduced with either challenge level | not preventing HT-29 tumor formation entirely | reduced | approximately 1.5 fold | 37 days | 4 days | did significantly slow tumor growth | exhibitied toxicity at 10 mg/kg | ~20 mg/kg
